Laboratory results as given in the OligoGym collection.
After the bases stand the sugars from the 5' end (letter, count) and the backbone: PS all phosphorothioate, else s phosphorothioate and o phosphodiester by linkage. Methylation of C is not given here. e = 2'-O-(2-methoxyethyl) (MOE); k = constrained ethyl (cEt); d = 2'-deoxy (DNA); m = 2'-O-methyl

Target: HSD17B13
Settings: ASO, HepaRG

Row | Sequence | target mRNA inhibition (1 µM) | also measured
1 | GACCAAGGATATATGA (sugars k3 d10 k3, PS) | 48% | 
2 | AAGAGTCAGTATCCTC (sugars k3 d9 k3 e1, PS) | 67% | 
3 | TGATTAATCTTGATGC (sugars k3 d10 k3, PS) | 15% | 
4 | GATAAGTAGATGGTAA (sugars k3 d10 k3, PS) | 59% | 
5 | TGGAATGCTACTTGAA (sugars k3 d10 k3, PS) | 85% | target mRNA inhibition (0.02 µM): 0%; target mRNA inhibition (0.078 µM): 22%; target mRNA inhibition (0.313 µM): 55%; target mRNA inhibition (1.25 µM): 71%; target mRNA inhibition (5 µM): 90%
6 | TAGCCAGTACAGTTCC (sugars k3 d9 k3 e1, PS) | 58% | 
7 | TTCCTCCACACCGCGC (sugars k3 d10 k3, PS) | 47% | 
8 | CAAATGAGGCGGCACT (sugars k3 d10 k3, PS) | 32% | 
9 | AATATCCCACAGAACC (sugars k3 d10 k3, PS) | 60% | 
10 | AAAGTTAATAGGACTA (sugars k3 d10 k3, PS) | 12% | 
11 | GCATACTTATTAAGTA (sugars k3 d10 k3, PS) | 32% | 
12 | GAAATTCACCTTGACT (sugars k3 d10 k3, PS) | 41% | 
13 | ATGTTTTGATCCAGGG (sugars k3 d10 k3, PS) | 46% | 
14 | AAATTACTCCGTTCTG (sugars k3 d10 k3, PS) | 28% | 
15 | TGTATAGCTGCATTTC (sugars k3 d10 k3, PS) | 37% | 
16 | GTTAGCTAAGGGAGAG (sugars k3 d10 k3, PS) | 18% | 
17 | TTTAGAGAGCGATAGA (sugars k3 d10 k3, PS) | 13% | 
18 | CAGGAAGACAGGTAAT (sugars k3 d10 k3, PS) | 60% | 
19 | GATGCTCCATAATAAT (sugars kkdddddddddkekek, PS) | 17% | 
20 | CAAACATGGATGTTAG (sugars k3 d10 k3, PS) | 49% | 
21 | AGGTAAACTAAAGTAC (sugars k3 d10 k3, PS) | 6% | 
22 | TGATCTTAAGGATCAT (sugars k3 d10 k3, PS) | 0% | 
23 | TTGTATGAGGTCTCTC (sugars k3 d10 k3, PS) | 50% | 
24 | ATCTATTATGCACTCT (sugars k3 d10 k3, PS) | 24% | 
25 | AAAATAGAGTCGGTCA (sugars k3 d10 k3, PS) | 71% | target mRNA inhibition (0.02 µM): 28%; target mRNA inhibition (0.078 µM): 27%; target mRNA inhibition (0.313 µM): 51%; target mRNA inhibition (1.25 µM): 69%; target mRNA inhibition (5 µM): 91%

Row | Sequence | target mRNA inhibition (1 µM) | also measured
26 | ATTAAGTACTGTGAGA (sugars k3 d10 k3, PS) | 1% | 
27 | GATACAAATTTATTGG (sugars k3 d10 k3, PS) | 33% | 
28 | CTTGATGATTCTGACT (sugars k3 d10 k3, PS) | 57% | 
29 | GTCTACCTCTAAGTTA (sugars k3 d10 k3, PS) | 3% | 
30 | GACATGAAGATTAGTT (sugars k3 d10 k3, PS) | 3% | 
31 | CCACAGAACCAATATG (sugars k3 d10 k3, PS) | 49% | 
32 | GTAATTACTTCTGATG (sugars k3 d10 k3, PS) | 41% | 
33 | CCTCGATCCTATATAC (sugars k3 d1 m1 d8 k3, PS) | 9% | 
34 | GTCTCCAATACAGGCC (sugars k3 d10 k3, PS) | 47% | 
35 | CTTGAACAGTCTTAAA (sugars k3 d1 m1 d8 k3, PS) | 49% | 
36 | TAGTCTTCAGCAAAGT (sugars k3 d10 k3, PS) | 49% | 
37 | TAGTTGGTAGCTTGCT (sugars k3 d10 k3, PS) | 66% | target mRNA inhibition (0.02 µM): 7%; target mRNA inhibition (0.078 µM): 31%; target mRNA inhibition (0.313 µM): 46%; target mRNA inhibition (1.25 µM): 74%; target mRNA inhibition (5 µM): 94%
38 | GACAAGAGTTCTTGCA (sugars k3 d10 k3, PS) | 22% | 
39 | GCAAGCCAACAGAGAG (sugars k3 d10 k3, PS) | 52% | 
40 | CAAACCTTGAATGAGT (sugars k3 d10 k3, PS) | 53% | 
41 | CTGGGATAGTGGAGGA (sugars k3 d10 k3, PS) | 21% | 
42 | TACGCATGCGCAGTGA (sugars k3 d10 k3, PS) | 60% | 
43 | AGTTAGTATAGTTATC (sugars kkdddddddddkekek, PS) | 47% | 
44 | TAGTTTGGTGGGCATG (sugars k3 d10 k3, PS) | 28% | 
45 | TAGTAATCACAAGTAA (sugars k3 d1 m1 d8 k3, PS) | 38% | 
46 | AACATCTCTGGGACCA (sugars k3 d10 k3, PS) | 74% | target mRNA inhibition (0.02 µM): 0%; target mRNA inhibition (0.078 µM): 11%; target mRNA inhibition (0.313 µM): 44%; target mRNA inhibition (1.25 µM): 64%; target mRNA inhibition (5 µM): 81%
47 | GCTCTATTGGGCCAGG (sugars k3 d10 k3, PS) | 47% | 
48 | CAGAATATATACTAGG (sugars k3 d10 k3, PS) | 55% | 
49 | TCCATAAAGCTGGATT (sugars k3 d10 k3, PS) | 13% | 
50 | ATAATGGGCAGAGCTG (sugars k3 d10 k3, PS) | 53% | 

Row | Sequence | target mRNA inhibition (1 µM) | also measured
51 | CATCATCGATGGAAGA (sugars k3 d10 k3, PS) | 14% | 
52 | GATGTATACATTACCT (sugars k3 d10 k3, PS) | 67% | 
53 | GACTGCTGCTAGTGCC (sugars k3 d1 m1 d8 k3, PS) | 60% | 
54 | TGACAATGGTTGATAG (sugars k3 d9 k3 e1, PS) | 38% | 
55 | ATTAGTCTTGATGTAG (sugars k3 d10 k3, PS) | 67% | 
56 | GTGGCATGGCTACAGA (sugars k3 d10 k3, PS) | 56% | 
57 | TTGTGTAGTCCTAGGG (sugars k3 d10 k3, PS) | 64% | 
58 | CAAAACAAGATTAGTC (sugars k3 d10 k3, PS) | 18% | 
59 | TGAGATAAAGCTGCCT (sugars k3 d10 k3, PS) | 63% | 
60 | TGCTGCTAGTGCCAAA (sugars k3 d10 k3, PS) | 58% | 
61 | ACCAAACTTCCAGCAG (sugars k3 d9 k3 e1, PS) | 36% | 
62 | TGAGAAGGCGGTATCA (sugars k3 d10 k3, PS) | 20% | 
63 | CACCGTTTTGGGCTAA (sugars kkdddddddddkekek, PS) | 42% | 
64 | GATGTAGTGGGAGTCG (sugars k3 d9 k3 e1, PS) | 42% | 
65 | AAACATGGATGTTAGG (sugars k3 d10 k3, PS) | 56% | 
66 | GTAATGGTAAACTGTA (sugars k3 d10 k3, PS) | 70% | 
67 | AAATGTCTTGGTAATC (sugars k3 d10 k3, PS) | 30% | 
68 | CACCATGACAGCTTCA (sugars k3 d10 k3, PS) | 65% | 
69 | AAAGATGTACACTGAC (sugars k3 d10 k3, PS) | 57% | 
70 | TTCACCACGATTGTTA (sugars k3 d10 k3, PS) | 40% | 
71 | CAGGTTGAGATAAAGC (sugars k3 d9 k3 e1, PS) | 63% | 
72 | TTAGGGAGGTAGCTTT (sugars k3 d10 k3, PS) | 54% | 
73 | CATAGACATGTGTTCA (sugars k3 d10 k3, PS) | 52% | 
74 | GATTAGTCTTGATGTA (sugars k3 d10 k3, PS) | 65% | 
75 | GAGTATGACAACTGGA (sugars k3 d10 k3, PS) | 23% | 

Row | Sequence | target mRNA inhibition (1 µM) | also measured
76 | AAGAGTCAGTATCCTC (sugars k3 d1 m1 d8 k3, PS) | 55% | 
77 | GATTTTTGGTGAACCC (sugars k3 d10 k3, PS) | 30% | 
78 | CCTTAACAAACCTCCA (sugars k3 d10 k3, PS) | 27% | 
79 | CCCAAGAGTGGCAGGA (sugars k3 d10 k3, PS) | 29% | 
80 | CACATACGCATGCGCA (sugars k3 d10 k3, PS) | 59% | 
81 | TTCCCAACGCAACAGT (sugars k3 d10 k3, PS) | 60% | 
82 | TTTACTGGGATACTAT (sugars k3 d10 k3, PS) | 25% | 
83 | TATACATCAACTCCTC (sugars k3 d10 k3, PS) | 39% | 
84 | CAGGGTGGTAACGGTG (sugars k3 d1 m1 d8 k3, PS) | 29% | 
85 | ATTTAAAATAGAGTCG (sugars k3 d10 k3, PS) | 24% | 
86 | CTACCTCTAAGTTAGC (sugars k3 d10 k3, PS) | 6% | 
87 | AATATTGAGGCACTGG (sugars kkdddddddddkekek, PS) | 29% | 
88 | AAGAGCCAAACTGCTA (sugars k3 d10 k3, PS) | 63% | target mRNA inhibition (0.02 µM): 0%; target mRNA inhibition (0.078 µM): 0%; target mRNA inhibition (0.313 µM): 11%; target mRNA inhibition (1.25 µM): 46%; target mRNA inhibition (5 µM): 66%
89 | GTTGATATTTCCATCT (sugars k3 d10 k3, PS) | 55% | 
90 | TATTATGTGATTGAGT (sugars k3 d9 k3 e1, PS) | 51% | 
91 | TCCCAACCAAACTTCC (sugars kkdddddddddkekek, PS) | 27% | 
92 | ACTCCAAGTAGGAGTA (sugars k3 d10 k3, PS) | 0% | 
93 | ATTGAATAGCCATGTA (sugars k3 d10 k3, PS) | 39% | 
94 | ATCACAAGTAAGGTAA (sugars k3 d10 k3, PS) | 62% | 
95 | ATGCTACTTGAACAGT (sugars k3 d10 k3, PS) | 47% | 
96 | AGCATTCATCAGATGT (sugars k3 d10 k3, PS) | 83% | target mRNA inhibition (0.02 µM): 0%; target mRNA inhibition (0.078 µM): 12%; target mRNA inhibition (0.313 µM): 40%; target mRNA inhibition (1.25 µM): 65%; target mRNA inhibition (5 µM): 56%
97 | AGCAGAATTGTGAACG (sugars kkdddddddddkekek, PS) | 31% | 
98 | TTGATCTCTTAGCTGT (sugars kkdddddddddkekek, PS) | 38% | 
99 | ATAGAGTCGGTCACCT (sugars k3 d10 k3, PS) | 60% | 
100 | AAGACATTCTAGCCTG (sugars k3 d10 k3, PS) | 63% | 
